In patent publication US8080580B2, “Dioxa-bicyclo[3.2.1]octane-2,3,4-triol derivatives” (Pfizer Inc., priority 2008, dated 2011):
Values joined by “and” are separate entries in the source; they are usually repeats but may differ in a detail not shown here. Equal values may be shown once.

What was measured:
hSGLT1 = target: T1, hSGLT1 (Homo sapiens, UniProt P13866); assay: SGLT1 functional assay: hSGLT1 IC50 (selectivity counter-screen to the SGLT2 AMG uptake assay); format: cell-based; conditions: individual runs (Run No.)
T1 sequence (P13866 1-664): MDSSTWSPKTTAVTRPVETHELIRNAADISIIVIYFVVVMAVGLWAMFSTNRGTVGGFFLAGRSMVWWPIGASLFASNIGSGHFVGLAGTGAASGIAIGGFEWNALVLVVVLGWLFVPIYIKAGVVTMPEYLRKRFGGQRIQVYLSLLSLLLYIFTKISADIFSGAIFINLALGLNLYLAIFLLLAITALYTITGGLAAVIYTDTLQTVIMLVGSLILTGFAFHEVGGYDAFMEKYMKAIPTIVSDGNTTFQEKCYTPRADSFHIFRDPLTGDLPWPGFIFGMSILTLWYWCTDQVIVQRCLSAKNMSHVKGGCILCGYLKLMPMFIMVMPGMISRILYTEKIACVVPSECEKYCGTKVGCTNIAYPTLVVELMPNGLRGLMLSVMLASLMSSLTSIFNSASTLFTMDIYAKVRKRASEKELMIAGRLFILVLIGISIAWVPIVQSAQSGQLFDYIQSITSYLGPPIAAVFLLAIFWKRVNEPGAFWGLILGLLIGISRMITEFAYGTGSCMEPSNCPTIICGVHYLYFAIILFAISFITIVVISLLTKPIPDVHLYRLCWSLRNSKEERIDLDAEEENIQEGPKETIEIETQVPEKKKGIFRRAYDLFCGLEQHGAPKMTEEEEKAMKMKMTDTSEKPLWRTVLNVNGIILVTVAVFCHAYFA

[1] = Pharmacokinetic testing in rats (IV or PO); format: in vivo; conditions: rat
Method: Examples 1A, 2A, 4A, 12A, and 14A were tested in rats to assess pharmacokinetic parameters including maximum concentration (Cmax), area under the plasma concentration time curve (AUC), clearance (CL), steady state volume of distribution (Vss), half life (t1/2), and bioavailability (F). Male Sprague Dawley rats (˜300 g) were used. Rats received compound by intravenous (IV) or oral gavage (PO) administration and the doses tested including vehicle to formulate dosing solutions are listed in Table 5.
Following IV or PO administration, 0.2 mL blood was sampled from the jugular vein at various timepoints (Table 5). Twenty microL aliquots of plasma samples and standards were subjected to protein precipitation with acetonitrile containing an internal standard. Samples were vortexed and centrifuged to obtain supernatant which was analyzed by LC-MS/MS. Analyst (Version 1.4.1) was used to measure peak areas and peak area ratios of analyte to internal standard were calculated. LC-MS/MS conditions are as follows: Mass Spectrometer+Source Type was Sciex API 4000−Turbo Spray; HPLC pump was Shimadzu; Autosampler was CTC PAL Autosampler; Injection volume was 3.0 to 10 microL; A gradient was used with mobile phase A: 10 mM ammonium acetate and 1% Isopropyl alcohol in water; B: Acetonitrile; Flowrate 0.300 mL per minute (Column 2.0×30 mm 5 microm LUNA C18 column (phenomenex)). Detection mode was negative.
A calibration curve was constructed from the peak area ratios of the standards to the internal standard by applying a weighted linear (1/x or 1/x2) regression. The dynamic range of the standard curve was 5.00 ng/mL to 5000 ng/mL.
Pharmacokinetic parameters were determined from individual animal data using non-compartmental analysis in Watson (version 7.2). Concentrations below the limit of quantitation (BLQ) were recorded as 0 ng/mL for use in calculations.
The following calculations were used: AUC(0−τ)=Determined using the linear trapezoidal method AUC(0−□)=AUC(0−τ) plus extrapolated area determined by dividing plasma concentration at τ by the slope of the terminal log-linear phase CL=Dose/AUC(0−∞) Vdss=CL×MRT Cmax=Recorded directly from plasma concentration time curve Tmax=Recorded directly from plasma concentration time curve t½=ln(0.5)/slope of the terminal log-linear phase F %=AUC(0−∞)PO per dose/AUC(0−∞)IV per dose C(0)=Extrapolated by linear regression from the apparent distribution phase following IV administration MRT=AUMC(AUC(0−∞)/AUC(0−∞)

human SGLT2 = target: T2, human SGLT2 (Homo sapiens, UniProt P31639); assay: SGLT2 functional assay: inhibition of AMG uptake in CHO-FlpIn cells stably expressing human SGLT2; format: cell-based; conditions: individual runs (Run No.), read-out: hSGLT2 IC50
T2 construct: expressed in transfected cells; host or cells: CHO-FlpIn (Invitrogen)
T2 sequence (P31639 1-672): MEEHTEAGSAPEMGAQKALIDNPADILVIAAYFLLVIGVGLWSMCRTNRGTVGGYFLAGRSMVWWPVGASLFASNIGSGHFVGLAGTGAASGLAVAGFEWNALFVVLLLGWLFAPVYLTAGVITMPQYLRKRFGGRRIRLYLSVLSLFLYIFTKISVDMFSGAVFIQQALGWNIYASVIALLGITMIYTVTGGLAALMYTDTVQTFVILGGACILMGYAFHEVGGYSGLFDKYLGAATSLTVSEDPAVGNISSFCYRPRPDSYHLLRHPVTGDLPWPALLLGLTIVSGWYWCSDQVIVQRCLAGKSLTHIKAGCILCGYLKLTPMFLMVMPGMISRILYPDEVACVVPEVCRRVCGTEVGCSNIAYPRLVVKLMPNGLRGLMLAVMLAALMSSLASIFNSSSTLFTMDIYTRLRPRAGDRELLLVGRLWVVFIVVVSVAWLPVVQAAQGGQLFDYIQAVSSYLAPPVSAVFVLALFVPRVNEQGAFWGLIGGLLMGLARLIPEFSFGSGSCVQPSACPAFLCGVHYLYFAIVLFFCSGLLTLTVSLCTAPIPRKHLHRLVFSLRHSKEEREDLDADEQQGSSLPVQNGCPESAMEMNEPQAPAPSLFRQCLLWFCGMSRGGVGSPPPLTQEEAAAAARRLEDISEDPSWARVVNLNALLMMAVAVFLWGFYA
Description: The SGLT2 functional assay was designed to detect the inhibition of methyl-alpha-D glucopyranoside (AMG—a non-metabolizable form of glucose) uptake via the SGLT2 transporter. The SGLT2 transporter recovers glucose from the proximal tubules of the kidney; its inhibition results in sugar wasted in the urine. The positive control compound, Phlorizin, is a known inhibitor of glucose uptake for SGLT2 and was used for comparing the high percent effect of SGLT2 inhibition of the test compounds.
CHO-FlpIn (Invitrogen, Carlsbad, Calif.) cells stably expressing human SGLT2 (pcDNA5/FRT) were plated in Iso-TC 96 well plates (Perkin Elmer, Waltham, Mass.) at a density of 100,000 cells/well in 100 microL of growth media (1:1 F-12/DMEM media (Gibco, Carlsbad, Calif.), 10% FBS (Sigma, St. Louis Mo.), 1× Pen/Strep (Gibco, Carlsbad, Calif.), 600 microg/mL Hygromycin (Invitrogen, Carlsbad, Calif.)). Prior to treating with test compound, confluent cells were serum starved for 2 hours at 37° C. in 1:1 F-12/DMEM media, replacing with fresh F-12/DMEM media after 1 hour. […] Cell plates were then incubated for 3 hours at 37° C. for AMG uptake.

[2] = male, Sprague Dawley, plasma, IV, 2 mg/kg
[3] = male, Sprague Dawley, plasma, PO, 10 mg/kg, PEG200/0.5% MC

**Q.** Which IC50 (hSGLT1) does the source give for `OC[C@@]12CO[C@@](c3ccc(Cl)c(Cc4ccc(OC5COC5)cc4)c3)(O1)[C@H](O)[C@@H](O)[C@@H]2O` [Example 14A, (1S,2S,3S,4R,5S)-5-{4-chloro-3-[4-(oxetan-3-yloxy)-benzyl]-phenyl}-1-hydroxymethyl-6,8-dioxa-bicyclo[3.2.1]octane-2,3,4-triol] here?
**A.** The IC50 was greater than 10000 nM.

**Q.** What about the AUC(0-inf) [1, 2] of the same molecule?
**A.** Its AUC(0-inf) is 1060 ng·h/mL.

**Q.** And the clearance [1, 2]?
**A.** Its clearance is 31.7 mL/min/kg.

**Q.** And the half-life [1, 2]?
**A.** The half-life was 1.36 h.

**Q.** What about the Vd ([1]; male, Sprague Dawley, plasma, IV, 2 mg/kg, read-out: Vss) of the same molecule?
**A.** The Vd was 1.69 L/kg.

**Q.** And the AUC(0-inf) [1, 3]?
**A.** The AUC(0-inf) was 2290 ng·h/mL.

**Q.** And the Cmax [1, 3]?
**A.** The Cmax was 551 ng/mL.

**Q.** And the half-life [1, 3]?
**A.** The half-life was 1.71 h.

**Q.** And the F ([1]; PO, 10 mg/kg, PEG200/0.5% MC)?
**A.** The F was 43.5%.

**Q.** And the IC50 (human SGLT2)?
**A.** The IC50 was 2.28 nM and 3.12 nM and 2.39 nM and 2.87 nM.
